Source: patent US8604217B2, “Compound, a process for its preparation, a pharmaceutical composition, use of a compound, a method for modulating or regulating serine/threonine kinases and a serine/threonine kinases modulating agent” (Selvita S.A., priority 2009, dated 2013)

Key:
Test in all cases: KinaseProfiler kinase panel
Assay type in all cases: biochemical
PAK2(h) = PAK2(h) (Homo sapiens (Human), UniProt Q13177)
Tie2 (h) = Tie2 (h) (Homo sapiens (Human), UniProt Q02763)
PDK1(h) = PDK1(h) (Homo sapiens (Human), UniProt O15530)
Lyn(m) = Lyn(m) (Mus musculus (Mouse), UniProt P25911)
MELK(h) = MELK(h) (Homo sapiens (Human), UniProt Q14680)
Tec(h) activated = Tec(h) activated (Homo sapiens (Human), UniProt P42680)
cSRC(h) = cSRC(h) (Homo sapiens (Human), UniProt P12931)
MRCKβ(h) = MRCKβ(h) (Homo sapiens (Human), UniProt Q9Y5S2)
Lyn(h) = Lyn(h) (Homo sapiens (Human), UniProt P07948)
Sequence of Lyn(h) (P07948 whole entry): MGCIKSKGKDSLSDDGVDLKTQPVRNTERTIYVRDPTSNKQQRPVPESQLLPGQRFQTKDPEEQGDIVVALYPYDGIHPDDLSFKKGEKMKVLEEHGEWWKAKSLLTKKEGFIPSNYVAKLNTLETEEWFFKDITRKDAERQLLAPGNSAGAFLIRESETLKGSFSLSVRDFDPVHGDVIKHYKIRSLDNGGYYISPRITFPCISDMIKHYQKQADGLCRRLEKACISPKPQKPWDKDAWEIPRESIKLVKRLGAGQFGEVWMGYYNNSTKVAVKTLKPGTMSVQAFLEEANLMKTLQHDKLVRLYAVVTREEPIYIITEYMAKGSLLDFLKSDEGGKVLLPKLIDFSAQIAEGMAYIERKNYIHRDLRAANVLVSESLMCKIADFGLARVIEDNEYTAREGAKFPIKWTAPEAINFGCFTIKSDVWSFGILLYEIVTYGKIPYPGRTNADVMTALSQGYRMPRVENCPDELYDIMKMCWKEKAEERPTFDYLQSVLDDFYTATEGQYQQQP

MuSK(h) = MuSK(h) (Homo sapiens (Human), UniProt O15146)
Sequence of MuSK(h) (O15146 24-869): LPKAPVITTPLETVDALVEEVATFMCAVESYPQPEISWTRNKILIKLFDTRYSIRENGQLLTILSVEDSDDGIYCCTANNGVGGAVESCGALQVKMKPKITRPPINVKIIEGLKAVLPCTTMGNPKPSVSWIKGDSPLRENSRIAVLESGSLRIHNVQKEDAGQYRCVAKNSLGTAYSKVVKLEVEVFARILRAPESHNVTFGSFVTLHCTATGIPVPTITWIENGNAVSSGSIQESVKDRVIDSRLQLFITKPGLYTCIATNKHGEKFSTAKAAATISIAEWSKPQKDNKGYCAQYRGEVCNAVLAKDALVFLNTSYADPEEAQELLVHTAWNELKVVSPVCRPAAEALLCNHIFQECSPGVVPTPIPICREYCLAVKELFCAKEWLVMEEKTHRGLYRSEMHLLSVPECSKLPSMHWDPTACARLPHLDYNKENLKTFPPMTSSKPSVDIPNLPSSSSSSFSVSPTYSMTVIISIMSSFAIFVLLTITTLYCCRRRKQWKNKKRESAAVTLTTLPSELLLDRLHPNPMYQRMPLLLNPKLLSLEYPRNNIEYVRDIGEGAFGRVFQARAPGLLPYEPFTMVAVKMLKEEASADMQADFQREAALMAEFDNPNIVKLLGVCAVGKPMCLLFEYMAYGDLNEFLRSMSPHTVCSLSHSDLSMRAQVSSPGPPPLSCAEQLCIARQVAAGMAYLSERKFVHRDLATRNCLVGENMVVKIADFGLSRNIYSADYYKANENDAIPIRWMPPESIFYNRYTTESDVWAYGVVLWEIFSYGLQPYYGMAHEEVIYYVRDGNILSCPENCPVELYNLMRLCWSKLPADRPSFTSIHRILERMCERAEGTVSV

EphA4(h) = EphA4(h) (Homo sapiens (Human), UniProt P54764)
LKB1(h) = LKB1(h) (Homo sapiens (Human), UniProt Q15831)
Sequence of LKB1(h) (Q15831 whole entry): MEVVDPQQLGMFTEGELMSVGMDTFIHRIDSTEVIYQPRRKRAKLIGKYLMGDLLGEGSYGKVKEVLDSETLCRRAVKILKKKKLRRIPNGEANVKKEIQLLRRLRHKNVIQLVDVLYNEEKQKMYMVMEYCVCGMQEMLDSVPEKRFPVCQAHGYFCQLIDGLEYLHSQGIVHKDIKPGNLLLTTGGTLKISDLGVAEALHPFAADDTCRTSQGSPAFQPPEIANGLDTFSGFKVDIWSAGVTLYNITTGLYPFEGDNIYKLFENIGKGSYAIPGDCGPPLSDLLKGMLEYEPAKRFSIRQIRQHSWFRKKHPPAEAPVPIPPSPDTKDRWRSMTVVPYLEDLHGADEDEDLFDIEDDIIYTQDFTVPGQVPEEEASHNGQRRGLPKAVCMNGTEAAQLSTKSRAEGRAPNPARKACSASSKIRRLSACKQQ
Sequence of LKB1(h) (Q7RTN6 whole entry partner): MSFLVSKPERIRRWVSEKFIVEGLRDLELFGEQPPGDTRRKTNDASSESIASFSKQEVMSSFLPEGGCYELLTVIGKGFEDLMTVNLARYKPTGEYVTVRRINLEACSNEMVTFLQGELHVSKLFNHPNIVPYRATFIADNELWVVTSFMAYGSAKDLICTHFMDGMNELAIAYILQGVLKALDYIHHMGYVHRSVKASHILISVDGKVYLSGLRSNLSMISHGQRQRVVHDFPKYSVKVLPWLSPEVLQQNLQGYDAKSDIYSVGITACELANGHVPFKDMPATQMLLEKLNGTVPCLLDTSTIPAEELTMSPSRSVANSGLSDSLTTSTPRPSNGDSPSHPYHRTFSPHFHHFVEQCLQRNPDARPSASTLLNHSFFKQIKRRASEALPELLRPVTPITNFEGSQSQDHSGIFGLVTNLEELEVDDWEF
Sequence of LKB1(h) (Q9Y376 whole entry partner): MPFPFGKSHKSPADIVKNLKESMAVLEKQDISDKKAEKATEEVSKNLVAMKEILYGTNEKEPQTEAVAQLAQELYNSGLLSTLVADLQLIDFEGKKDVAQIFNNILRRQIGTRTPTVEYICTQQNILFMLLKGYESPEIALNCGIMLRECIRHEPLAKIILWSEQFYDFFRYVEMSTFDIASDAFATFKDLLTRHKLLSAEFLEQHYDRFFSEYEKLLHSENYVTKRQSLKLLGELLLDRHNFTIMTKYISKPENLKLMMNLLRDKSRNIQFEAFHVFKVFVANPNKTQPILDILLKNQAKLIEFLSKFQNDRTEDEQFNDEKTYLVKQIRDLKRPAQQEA

PIM-1(h) = PIM-1(h) (Homo sapiens (Human), UniProt P11309)
Met(h) = Met(h) (Homo sapiens (Human), UniProt P08581)
FGFR1(h) = FGFR1(h) (Homo sapiens (Human), UniProt P11362)
MKK6(h) = MKK6(h) (Homo sapiens (Human), UniProt P52564)
MRCKα(h) = MRCKα(h) (Homo sapiens (Human), UniProt Q5VT25)
Mer(h) = Mer(h) (Homo sapiens (Human), UniProt Q12866)
CK1γ1(h) = CK1γ1(h) (Homo sapiens (Human), UniProt Q9HCP0)
CK2α2(h) = CK2α2(h) (Homo sapiens (Human), UniProt P19784)
Sequence of CK2α2(h) (P19784 whole entry): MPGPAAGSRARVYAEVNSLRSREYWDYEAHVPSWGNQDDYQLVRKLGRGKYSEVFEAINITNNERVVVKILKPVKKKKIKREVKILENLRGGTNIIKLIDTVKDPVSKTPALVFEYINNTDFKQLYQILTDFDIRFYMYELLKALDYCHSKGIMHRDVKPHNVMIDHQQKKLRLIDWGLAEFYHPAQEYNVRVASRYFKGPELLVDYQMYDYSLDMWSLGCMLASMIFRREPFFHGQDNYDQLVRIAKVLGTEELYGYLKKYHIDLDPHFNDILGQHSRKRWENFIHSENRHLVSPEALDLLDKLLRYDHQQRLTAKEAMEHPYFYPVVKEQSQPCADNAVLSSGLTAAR

FAK(h) = FAK(h) (Homo sapiens (Human), UniProt Q05397)
Rsk3(h) = Rsk3(h) (Homo sapiens (Human), UniProt Q15349)
PrKX(h) = PrKX(h) (Homo sapiens (Human), UniProt P51817)
Sequence of PrKX(h) (P51817 whole entry): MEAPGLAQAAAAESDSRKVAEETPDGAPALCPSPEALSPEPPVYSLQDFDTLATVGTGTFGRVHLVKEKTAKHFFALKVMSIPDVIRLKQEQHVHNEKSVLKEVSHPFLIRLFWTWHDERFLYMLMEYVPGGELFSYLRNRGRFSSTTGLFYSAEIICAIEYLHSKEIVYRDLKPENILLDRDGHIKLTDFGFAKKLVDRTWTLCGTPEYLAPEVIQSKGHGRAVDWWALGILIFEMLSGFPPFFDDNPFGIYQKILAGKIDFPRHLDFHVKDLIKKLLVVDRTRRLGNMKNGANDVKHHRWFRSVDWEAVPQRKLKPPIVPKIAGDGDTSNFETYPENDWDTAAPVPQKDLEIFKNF

Met(Y1248D)(h) = Met(Y1248D)(h) (Homo sapiens (Human), UniProt P08581, Y1248D)
ROCK-II(h) = ROCK-II(h) (Homo sapiens (Human), UniProt O75116)
CHK2(R145W)(h) = CHK2(R145W)(h) (Homo sapiens (Human), UniProt O96017, R145W)
PAK3(h) = PAK3(h) (Homo sapiens (Human), UniProt O75914)
EGFR(L861Q)(h) = EGFR(L861Q)(h) (Homo sapiens (Human), UniProt P00533, L861Q)
GRK6(h) = GRK6(h) (Homo sapiens (Human), UniProt P43250)
CDK1/cyclinB(h) = CDK1/cyclinB(h) (Homo sapiens (Human), UniProt P06493)
Sequence of CDK1/cyclinB(h) (P06493 whole entry): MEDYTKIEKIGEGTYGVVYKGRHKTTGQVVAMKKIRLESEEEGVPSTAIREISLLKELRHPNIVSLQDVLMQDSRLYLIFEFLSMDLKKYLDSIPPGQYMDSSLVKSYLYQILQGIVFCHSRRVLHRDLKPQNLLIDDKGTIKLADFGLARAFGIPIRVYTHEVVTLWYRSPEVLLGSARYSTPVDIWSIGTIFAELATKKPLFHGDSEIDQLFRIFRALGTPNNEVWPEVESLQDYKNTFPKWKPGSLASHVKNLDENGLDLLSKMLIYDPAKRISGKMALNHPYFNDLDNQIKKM
Sequence of CDK1/cyclinB(h) (P14635 whole entry partner): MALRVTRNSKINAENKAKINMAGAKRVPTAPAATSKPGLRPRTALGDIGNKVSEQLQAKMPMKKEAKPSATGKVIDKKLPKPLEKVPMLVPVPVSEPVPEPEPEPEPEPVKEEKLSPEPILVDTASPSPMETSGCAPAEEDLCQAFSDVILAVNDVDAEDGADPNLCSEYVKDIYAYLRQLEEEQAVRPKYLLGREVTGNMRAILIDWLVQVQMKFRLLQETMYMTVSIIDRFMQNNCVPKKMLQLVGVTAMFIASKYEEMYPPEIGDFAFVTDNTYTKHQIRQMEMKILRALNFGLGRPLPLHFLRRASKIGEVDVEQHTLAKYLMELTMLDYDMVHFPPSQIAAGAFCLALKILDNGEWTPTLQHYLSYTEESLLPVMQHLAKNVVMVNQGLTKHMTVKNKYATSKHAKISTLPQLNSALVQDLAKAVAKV

DRAK1(h) = DRAK1(h) (Homo sapiens (Human), UniProt Q9UEE5)
Bmx(h) = Bmx(h) (Homo sapiens (Human), UniProt P51813)
Blk(m) = Blk(m) (Mus musculus (Mouse), UniProt P16277)
EphA2(h) = EphA2(h) (Homo sapiens (Human), UniProt P29317)
SGK3(h) = SGK3(h) (Homo sapiens (Human), UniProt Q96BR1)
IGF-1R(h) = IGF-1R(h) (Homo sapiens (Human), UniProt P08069)
TAO3(h) = TAO3(h) (Homo sapiens (Human), UniProt Q9H2K8)
EGFR(T790M)(h) = EGFR(T790M)(h) (Homo sapiens (Human), UniProt P00533, T790M)
FGFR2(N549H)(h) = FGFR2(N549H)(h) (Homo sapiens (Human), UniProt P21802, N549H)
Sequence of FGFR2(N549H)(h) (P21802 22-821 N549H): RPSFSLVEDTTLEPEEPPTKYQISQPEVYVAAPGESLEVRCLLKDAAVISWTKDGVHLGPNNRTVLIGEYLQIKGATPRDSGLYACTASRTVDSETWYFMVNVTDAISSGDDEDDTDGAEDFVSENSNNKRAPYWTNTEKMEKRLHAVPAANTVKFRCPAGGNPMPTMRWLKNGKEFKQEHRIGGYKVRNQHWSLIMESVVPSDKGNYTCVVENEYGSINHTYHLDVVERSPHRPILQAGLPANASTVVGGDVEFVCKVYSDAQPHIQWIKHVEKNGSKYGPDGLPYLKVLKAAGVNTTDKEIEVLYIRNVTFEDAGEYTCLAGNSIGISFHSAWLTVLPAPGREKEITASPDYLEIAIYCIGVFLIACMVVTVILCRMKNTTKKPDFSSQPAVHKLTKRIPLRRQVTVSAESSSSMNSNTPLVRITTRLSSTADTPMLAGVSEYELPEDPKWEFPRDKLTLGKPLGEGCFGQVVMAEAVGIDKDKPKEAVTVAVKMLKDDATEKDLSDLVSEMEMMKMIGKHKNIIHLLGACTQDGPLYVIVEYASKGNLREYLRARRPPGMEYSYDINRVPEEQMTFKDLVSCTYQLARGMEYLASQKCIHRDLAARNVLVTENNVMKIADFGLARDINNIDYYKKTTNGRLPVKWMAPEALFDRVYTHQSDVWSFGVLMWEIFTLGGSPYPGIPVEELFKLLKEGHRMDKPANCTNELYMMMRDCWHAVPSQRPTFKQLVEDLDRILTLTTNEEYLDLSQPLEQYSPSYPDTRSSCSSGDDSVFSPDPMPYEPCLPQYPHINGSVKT

MKK7β(h) = MKK7β(h) (Homo sapiens (Human), UniProt O14733)

remaining activity at 1 µM (PAK2(h)): 95%
remaining activity at 1 µM (Tie2 (h)): 92%
remaining activity at 1 µM (PDK1(h)): 109%
remaining activity at 1 µM (Lyn(m)): 73%
remaining activity at 1 µM (MELK(h)): 86%
remaining activity at 1 µM (Tec(h) activated): 107%
remaining activity at 1 µM (cSRC(h)): 79%
remaining activity at 1 µM (MRCKβ(h)): 113%
remaining activity at 1 µM (Lyn(h)): 65%
remaining activity at 1 µM (MuSK(h)): 103%
remaining activity at 1 µM (EphA4(h)): 99%
remaining activity at 1 µM (LKB1(h)): 86%
remaining activity at 1 µM (PIM-1(h)): 1%
remaining activity at 1 µM (Met(h)): 81%
remaining activity at 1 µM (FGFR1(h)): 99%
remaining activity at 1 µM (MKK6(h)): 43%
remaining activity at 1 µM (MRCKα(h)): 96%
remaining activity at 1 µM (Mer(h)): 14%
remaining activity at 1 µM (CK1γ1(h)): 83%
remaining activity at 1 µM (CK2α2(h)): 73%
remaining activity at 1 µM (FAK(h)): 94%
remaining activity at 1 µM (Rsk3(h)): 71%
remaining activity at 1 µM (PrKX(h)): 74%
remaining activity at 1 µM (Met(Y1248D)(h)): 81%
remaining activity at 1 µM (ROCK-II(h)): 81%
remaining activity at 1 µM (CHK2(R145W)(h)): 76%
remaining activity at 1 µM (PAK3(h)): 100%
remaining activity at 1 µM (EGFR(L861Q)(h)): 27%
remaining activity at 1 µM (GRK6(h)): 91%
remaining activity at 1 µM (CDK1/cyclinB(h)): 7%
remaining activity at 1 µM (DRAK1(h)): 82%
remaining activity at 1 µM (Bmx(h)): 94%
remaining activity at 1 µM (Blk(m)): 97%
remaining activity at 1 µM (EphA2(h)): 106%
remaining activity at 1 µM (SGK3(h)): 92%
remaining activity at 1 µM (IGF-1R(h)): 75%
remaining activity at 1 µM (TAO3(h)): 14%
remaining activity at 1 µM (EGFR(T790M)(h)): 28%
remaining activity at 1 µM (FGFR2(N549H)(h)): 101%
remaining activity at 1 µM (MKK7β(h)): 95%
SMILES: CCn1c(N2CCNCC2)nc2c(Br)c(Br)c(Br)c(Br)c21 [Compound 416, 4,5,6,7-tetrabromo-1-ethyl-2-(piperazin-1-yl)-1H-benzo[d]imidazole]
